{
  "source": "patent US20140072557A1",
  "about": "“MEDICINAL AGENT FOR SUPPRESSING MALIGNANT TUMOR METASTASIS” (priority 2011, published 2014)",
  "key": {"A549 cells [1]": {"test_system": "A549 cells", "experiment": "Invasion ability, Matrigel-coated Boyden chamber assay, A549 cells", "format": "cell-based", "details": "1 μM hANP, TGF-β1 1 ng/mL, 40 hours", "description": "Using a 6-well dish, the A549 cells were cultured at 1×10^5 cells/well, and the culture medium was replaced with DMEM culture medium free from FBS the next day. After 24 hours of culture, the cells were divided into 3 groups (the control group, the TGF-β1 group, and the TGF-β1+hANP group), and used in the following experiment.\nTo the culture medium for the TGF-β1+hANP group, the hANP solution was added so that the final concentration of hANP would be […] the control group and the TGF-β1 group, the same amount of physiological saline was added to the culture medium. After 2 hours from the addition, the Boyden chamber assay was performed as follows. Cell culture inserts (8.0 μm pore size, made by Becton, Dickinson and Company) coated with Matrigel were prepared beforehand by placing cell culture inserts on a 6-well dish, adding 300 μL each of a […] Matrigel solution (adjusted with PBS) thereonto, and air drying the inserts.\nDMEM culture medium free from FBS for the control group, the same DMEM culture medium containing TGF-β1 (final concentration: 1 ng/mL) for the TGF-β1 group, and the same DMEM culture medium containing hANP (final concentration: 1 μM) and TGF-β1 (final concentration: 1 ng/mL) for the TGF-β1+hANP group were separately added to each well of a 6-well dish in an amount of 1.5 mL. […]"}, "HUVEC cell layer": {"test_system": "HUVEC cell layer", "experiment": "Implantation of A549 cells into HUVEC cell layer", "format": "cell-based, human", "details": "VEGF+hANP (1 μM)", "description": "Normal human umbilical cord vein endothelial cells (HUVEC) were purchased from Takara Bio, Inc. Medium preparation and subculture were performed according to the package insert. Nuclear staining was performed using TOPRO3 (purchased from Invitrogen), and immunostaining of VE-cadherin was performed using anti-VE-cadherin antibody (purchased from BD Biosciences). p After culturing the HUVEC to confluent and replacing the medium with a serum free medium, nuclear staining and immunostaining using anti-VE-cadherin antibody were performed in the presence or absence of VEGF and hANP to observe the expression of VE-cadherin.\nIn the presence of VEGF alone, the expression of VE-cadherin decreased, and intercellular gaps were observed. […] Further, in the presence of VEGF alone, when A549 cells were added onto the HUVEC cell layer, implantation of the A549 cells into the HUVEC cell layer was observed."}, "A549 cells [2]": {"test_system": "A549 cells", "experiment": "Intracellular cGMP level in A549 cells on natriuretic peptide stimulus", "format": "cell-based", "details": "1×10^−11 M to 1×10^−6 M, 10 minutes", "description": "The A549 cells were cultured in a 24-well dish at 4×10^4 cells/well, and the culture medium was replaced with DMEM culture medium free from FCS the next day. To the culture medium, solutions of hANP, hBNP, and hCNP (final concentration: ten-fold serial dilution from 1×10^−11 M to 1×10^−6 M, the same amount of physiological saline was used as a control) were separately added. After 10 minutes passed, 400 μL of cooled 70% ethanol (containing 0.1 N hydrochloric acid) was added, and ultrasonication was performed for a short time. The treated solution was lyophilized, and the cGMP level was measured using Cyclic GMP Assay kit (made by Yamasa Corp.)."}, "lung cancer patients": {"test_system": "lung cancer patients", "experiment": "Cancer recurrence after cancer resection surgery in lung cancer patients", "format": "in vivo, human", "details": "hANP 0.025 μg/kg/min continuous from surgery for 3 days, about 2 years follow-up, stages IA-III", "description": "It is reported that lung cancer patients whose BNP level in the blood is 30 pg/mL or higher are at high risk of postsurgical complications after a cancer removal surgery. In this experiment, lung cancer patients were measured for the BNP level in the blood before cancer removal surgery. A part of the patients having the BNP level in the blood of 30 pg/mL or higher and patients judged to be at high risk of postsurgical complications by the doctor in charge were assigned to the hANP group (52 patients in total; cancer stage breakdown was IA: 26 patients […], IB: 16 patients […], II: 7 patients […], and III: 3 patients (6%)). The control group consisted of patients assigned regardless of the BNP level in the blood (287 patients in total, cancer stage breakdown was IA: 155 patients (54%), IB: 65 patients (23%), II: 35 patients (12%), and III: 32 patients (11%)). To the hANP group, hANP (trade name: HAMP for INJECTION 1000, non-bolus, made by DAIICHI SANKYO Co., Ltd.) was continuously administered at 0.025 μg/kg/min starting during the surgery of lung cancer and the administration continued for 3 days after surgery. Before the surgery and for 4 days after surgery, each patient was measured for the blood pressure (systolic and diastolic), the heart rate, and the urine volume. […]"}, "[3]": {"test_system": "cancer cells (A549, H460, H520, H358 cells)", "experiment": "Combined effect of hANP and cisplatin on apoptosis induction in cancer cells", "format": "cell-based", "details": "hANP 1 or 10 μM with cisplatin 1-30 μM, 48 hours", "description": "As the cisplatin, CISPLATIN inj. “Maruko” (trade name, Nichi-Iko Pharmaceutical) was used.\nUsing a 96-well dish, the A549 cells were cultured at 1×10^4 cells/well. The next day, the culture medium was replaced with DMEM culture medium free from FBS. After 24-hours culture, the cells were divided into groups (control group, cisplatin single administration group, 1 μM hANP group, cisplatin+1 μM hANP group, 10 μM hANP group, and cisplatin+10 μM hANP group), and the following experiment was conducted.\nTo the culture medium, for the hANP addition groups, a hANP solution prepared so that the final concentration of hANP would be 1 or 10 μM was added, whereas for the control group and the cisplatin single administration group, the same amount of physiological saline was added. Further, for the cisplatin addition groups, a cisplatin solution prepared so that the final concentration of cisplatin would be 1, 5, 10, 20, or 30 μM was added (for the control group and the hANP single administration group, the same amount of physiological saline was added). […] 48 hours later, trypan blue staining was performed and the cell viability (number of living cells/total number of all cells) was determined with the use of an automatic cell counter Countess (registered trademark) (Invitrogen). […]"}},
  "data": [
    {"compound": "CC[C@H](C)[C@@H]1NC(=O)[C@H](CCCNC(=N)N)NC(=O)[C@H](CC(=O)O)NC(=O)[C@H](CCSC)NC(=O)[C@H](CCCNC(=N)N)NC(=O)CNC(=O)CNC(=O)[C@H](Cc2ccccc2)NC(=O)[C@@H](NC(=O)[C@H](CO)NC(=O)[C@H](CO)NC(=O)[C@H](CCCNC(=N)N)NC(=O)[C@H](CCCNC(=N)N)NC(=O)[C@H](CC(C)C)NC(=O)[C@@H](N)CO)CSSC[C@@H](C(=O)N[C@@H](CC(N)=O)C(=O)N[C@@H](CO)C(=O)N[C@@H](Cc2ccccc2)C(=O)N[C@@H](CCCNC(=N)N)C(=O)N[C@@H](Cc2ccc(O)cc2)C(=O)O)NC(=O)CNC(=O)[C@H](CC(C)C)NC(=O)CNC(=O)[C@H](CO)NC(=O)[C@H](CCC(N)=O)NC(=O)[C@H](C)NC(=O)CNC1=O", "note": "[hANP, carperitide]", "values": [
      {"measurement": "cell invasion via the Matrigel layer", "setting": "A549 cells [1]", "value": "significantly suppressed"},
      {"measurement": "implantation of A549 cells into the HUVEC cell layer", "setting": "HUVEC cell layer", "value": "this phenomenon of implantation was suppressed"},
      {"measurement": "intracellular cGMP level", "setting": "A549 cells [2]", "value": "increased the intracellular cGMP level of the A549 cells in a concentration-dependent manner"},
      {"measurement": "early recurrence of cancer (recurrence-free survival)", "setting": "lung cancer patients", "value": "early recurrence was not observed"},
      {"measurement": "apoptosis-inducing activity in combination with cisplatin", "setting": "[3]", "value": "enhanced"}
    ]}
  ]
}
